Measured values from paper PMC11284790, “Targeting Myeloperoxidase Ameliorates Gouty Arthritis: A Virtual Screening Success Story” (Journal of Medicinal Chemistry, 2024).

Experiments:
Human leukocyte MPO [1] = target: T1, Human leukocyte MPO (Homo sapiens, UniProt P05164); assay: MPO chlorinating activity assay (taurine chloramine/TMB); format: biochemical; design: Human leukocyte MPO (EC 1.7.1.11) was purchased from Planta Natural Products; purchased Planta Natural Products (Vienna, Austria); host or cells: human leukocytes; details: for IC50: pH 7.4
Experimental: Chlorinating activity was carried out in phosphate buffer (20 mM, pH 7.4). Compounds (20 μM) were dissolved in 0.03% DMSO, MPO (10 nM), diethylenetriaminepentaacetic acid (100 μM), cetyltrimethylammonium chloride (0.03%), NaCl (140 mM), and taurine (5 mM).[31] This mixture was incubated at 37 °C for 15 min before adding 40 μM hydrogen peroxide. The reaction ran for 8 min and was then stopped by catalase (20 μg/mL). Oxidation of TMB (2 mM) (3,3,5,5-tetramethylbenzidine) by taurine chloroamine catalyzed by iodide (100 μM) was quantified at 650 nm.[33] Results were expressed as a percentage of the control (vehicle). IC50 was calculated by nonlinear regression using the Hill equation present in GraphPad Prism 5 software.

hTERT-RPE1 cells = assay: Cell viability assay (XTT); format: cell-based; details: 2-50 μM, 72 h
Experimental: hTERT-RPE1 cells were seeded in 24-well plates at 2 × 10^4 cells per well. After 24 h, cells were treated with 2, 5, 10, 25, or 50 μM RL6, RL7, or PTU in a culture medium (DMEM/F-12 with HEPES and 10% FBS). DMSO was added to untreated cells at 0.42% concentration as a vehicle control. After 72 h of treatment, cells were washed with PBS and left in 200 μL of XTT working solution for 3 h. The working solution was prepared according to manufacturer’s instructions but diluted eightfold in PBS. The supernatant was transferred to a 96-well plate; absorbance was read at 450 and 750 nm in a Synergy (Biotek, Winooski, VE, USA) plate reader and presented as percentage of control.
Figure S5. Evaluation of cytotoxicity by XTT. hTERT-RPE1 cells were seeded in 24-
well plates at 2 × 10^4 cells per well. 24h later, cells were treated with RL6, RL7 or PTU
(2, 5, 10, 25, 50 µM) in culture medium (DMEM/F-12 with HEPES and 10% FBS).
Viable cells were assessed 72h after treatments by measuring absorbance of the
supernatant at 450 and 750 nm and are presented as percentage of control (0.42%
DMSO). Data are mean ± SEM of three independent experiments.

Human leukocyte MPO [2] = target: T1, Human leukocyte MPO; assay: MPO peroxidatic activity assay (AmplexRed oxidation); format: biochemical; design: Human leukocyte MPO (EC 1.7.1.11) was purchased from Planta Natural Products; purchased Planta Natural Products (Vienna, Austria); host or cells: human leukocytes
Experimental: MPO peroxidase activity was kinetically monitored using the artificial peroxidase substrate AmplexRed, which is oxidized to resorufin and can be detected by fluorescence.[34] Reactions were carried out in phosphate buffer (50 mM, pH 7.4), MPO (100 pM), cetyltrimethylammonium chloride (0.03%), diethylenetriaminepentaacetic acid (100 μM), AmplexRed (30 μM), and compounds (20 μM in 0.3% DMSO). The reaction was started by adding 2 μM hydrogen peroxide. The reaction product was assessed by fluorescence at λex = 530 and λem = 580 nm. The initial velocity was calculated by the slope of the linear regression in the first minutes of reaction. Inhibition is represented as a percentage of the control (vehicle).

Human leukocyte MPO [3] = target: T1, Human leukocyte MPO; assay: Oxidation of the compounds by MPO/H2O2 (intrinsic fluorescence decay); format: biochemical; design: Human leukocyte MPO (EC 1.7.1.11) was purchased from Planta Natural Products; purchased Planta Natural Products (Vienna, Austria); host or cells: human leukocytes; details: 1 μM compound; for compound oxidation by MPO/H2O2 in the presence of chloride (fluorescence) / compound oxidation by MPO/H2O2 in the absence of chloride (fluorescence): 10 nM MPO; for compound oxidation by MPO/H2O2 in the presence of chloride (fluorescence): 40 μM H2O2, 140 mM NaCl; for compound oxidation by MPO/H2O2 in the absence of chloride (fluorescence): 40 μM H2O2, no chloride
Experimental: Changes in the absorption and fluorescence spectra of RL6 and RL7 were determined by incubating 1 μM compounds in 0.3% DMSO and phosphate buffer (20 mM, pH 7.4) with or without MPO (10 nM), diethylenetriaminepentaacetic acid (100 μM), taurine (5 mM), cetyltrimethylammonium chloride (0.03%), and NaCl (140 mM). In the chloride-free system, NaCl and taurine were omitted, and cetyltrimethylammonium chloride was replaced by cetyltrimethylammonium bisulfate. The reaction was performed in the absence or presence of Tyr (50 μM) and was started by adding 40 μM hydrogen peroxide. RL6 and RL7 consumption was monitored by fluorescence at λex = 413/λem = 603 nm for RL6 or λex = 306/λem = 603 nm for RL7 in a microplate reader.

[4] = 20 μM compound, 10 nM MPO, 140 mM NaCl, 5 mM taurine, 40 μM H2O2, pH 7.4, read-out: % Inhibition (at 20 μM) Chlorinating
[5] = supplementary csv copy of Table 1, read-out: % Inhibition (Chlorinating)

T1 sequence (P05164 279-745 limits assumed): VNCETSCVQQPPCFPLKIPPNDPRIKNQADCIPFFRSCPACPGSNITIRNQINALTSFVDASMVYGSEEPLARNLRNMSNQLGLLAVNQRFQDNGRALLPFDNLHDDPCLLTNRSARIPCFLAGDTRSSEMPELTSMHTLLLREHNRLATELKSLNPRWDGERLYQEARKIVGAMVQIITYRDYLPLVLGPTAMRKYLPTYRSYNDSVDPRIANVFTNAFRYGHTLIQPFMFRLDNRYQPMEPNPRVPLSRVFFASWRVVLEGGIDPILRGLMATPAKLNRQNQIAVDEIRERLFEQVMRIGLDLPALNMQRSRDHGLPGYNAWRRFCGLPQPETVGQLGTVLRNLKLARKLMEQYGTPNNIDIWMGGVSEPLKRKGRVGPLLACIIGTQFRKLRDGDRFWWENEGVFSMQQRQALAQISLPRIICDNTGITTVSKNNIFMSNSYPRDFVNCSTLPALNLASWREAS
T1 sequence (P05164 165-278 limits assumed): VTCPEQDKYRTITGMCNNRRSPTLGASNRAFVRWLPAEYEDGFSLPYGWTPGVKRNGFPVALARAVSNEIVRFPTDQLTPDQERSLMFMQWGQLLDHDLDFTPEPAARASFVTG

Row | Compound | IC50 (Human leukocyte MPO [1]; 10 nM MPO, 140 mM NaCl) | inhibition at 20 µM (Human leukocyte MPO [1]; [4]) | chlorinating/peroxidatic activity inhibition ratio (Human leukocyte MPO [1]; ratio of % inhibition at 20 μM, ~1 indicates true enzyme inhibitor) | inhibition at 20 µM (Human leukocyte MPO [1]; [5]) | cytotoxicity to hTERT-RPE1 cells (hTERT-RPE1 cells) | inhibition at 20 µM (Human leukocyte MPO [2]; 20 μM compound, 100 pM MPO, 30 μM AmplexRed, 2 μM H2O2, pH 7.4, read-out: % Inhibition (at 20 μM) Peroxidatic) | inhibition at 20 µM (Human leukocyte MPO [2]; supplementary csv copy of Table 1, read-out: % Inhibition (Peroxidatic)) | compound oxidation by MPO/H2O2 in the presence of chloride (fluorescence) (Human leukocyte MPO [3]) | compound oxidation by MPO/H2O2 in the absence of chloride (fluorescence) (Human leukocyte MPO [3]) | compound oxidation by MPO/H2O2 in the presence of tyrosine (fluorescence) (Human leukocyte MPO [3]; 50 μM tyrosine) | % Inhibition (at 20 μM) Chlorinating (Human leukocyte MPO [1]; 20 μM compound, 10 nM MPO, 140 mM NaCl, 5 mM taurine, 40 μM H2O2, pH 7.4) | % Inhibition (at 20 μM) Peroxidatic (Human leukocyte MPO [2]; 20 μM compound, 100 pM MPO, 30 μM AmplexRed, 2 μM H2O2, pH 7.4) | % Inhibition (Peroxidatic) (Human leukocyte MPO [2]; supplementary csv copy of Table 1)
1 | Nc1cc2c3c(cccc3c1)C(=O)N(N)C2=O [RL6] | 0.27 µM | 86.5 ± 15.3% | ~1 | 86.5 ± 15.3% | no cytotoxicity | 73 ± 13.4% | 73 ± 13.4% | did not undergo any alteration | did not undergo any alteration | No oxidation occurred | – | – | –
2 | CN1CCc2nc3sc(C(=O)Nc4cccc(C#N)c4)c(N)c3cc2C1 [RL7] | 0.56 µM | 84.9 ± 17% | – | 84.9 ± 17% | highly cytotoxic at 50 μM | – | – | further consumed in the full reaction system in the presence of chloride | not further enhanced by hydrogen peroxide/MPO | – | active against chlorinating activity only | INACTIVE | INACTIVE
